Consider twelve compounds from patent publication US6843979B2, “4-haloethenylphenyl tropane:serotonin transporter imaging agents” (Emory University, priority 1999, dated 2005).

One assay addresses T1, human SERT (Homo sapiens, UniProt P31645).
T1 construct: expressed in transfected cells
The assay is described as follows: Binding site competition, cells stably transfected with human SERT, [3H]citalopram. The settings on record: for Ki / SERT Ki: [3H]citalopram, transfected cell lines; for DAT/SERT selectivity / NET/SERT selectivity: ratio of Ki.

A further assay addresses T2, human DAT (Homo sapiens, UniProt Q01959).
T2 construct: expressed in transfected cells
The assay is described as follows: Binding site competition, cells stably transfected with human DAT, [3H]WIN 35,428. The settings on record: [3H]WIN 35428, transfected cell lines.

Another assay addresses T3, human NET (Homo sapiens, UniProt P23975).
T3 construct: expressed in transfected cells
The assay is described as follows: Binding site competition, cells stably transfected with human NET, [3H]nisoxetine. To be noted: transfected cell lines.

The test system of a further assay is SERT. The settings on record: cited from earlier work.
In assay [1] the target is T4, 5-HTT (serotonin transporter site) (Homo sapiens, UniProt P31645).
T4 construct: expressed in transfected cells
The assay is described as follows: Transporter affinity of N-alkyl ZIENT ligands in transfected cell lines, [3H]citalopram. It counts as binding. An excerpt:
(§1) In order to determine whether any structural modifications of ZIENT, FEINT, and FEBrNT would still yield high selectivity and specificity for SERT similar to the results seen with ZIENT, FEINT, FEBrNT and FEClNT, various substitutions on the tropane nitrogen and the 2-beta carboxyester position were made and tested in in vitro binding studies.
(§2) These studies provide a variety of new compounds which can be used as imaging agents for visualizing the location and density of serotonin transporter by PET or SPECT imaging.

Assay [2] has as its target T5, DAT (dopamine transporter site) (Homo sapiens, UniProt Q01959).
T5 construct: expressed in transfected cells
The assay is described as follows: Transporter affinity of N-alkyl ZIENT ligands in transfected cell lines, [125I]TRI-55. It counts as binding.
From the text: as §1, §2

Assay [3] concerns the target T6, NET (norepinephrine transporter site) (Homo sapiens, UniProt P23975).
T6 construct: expressed in transfected cells
The assay is described as follows: Transporter affinity of N-alkyl ZIENT ligands in transfected cell lines, [3H]nisoxetine. In kind it is binding.
From the text: as §1, §2

Each structure is given as a SMILES string. “And” between values parts separate entries of the source, which are not always exact repeats. Equal entries are not always repeated. Where two headings read alike, the source gives them in different places.

T1 sequence (P31645 whole entry): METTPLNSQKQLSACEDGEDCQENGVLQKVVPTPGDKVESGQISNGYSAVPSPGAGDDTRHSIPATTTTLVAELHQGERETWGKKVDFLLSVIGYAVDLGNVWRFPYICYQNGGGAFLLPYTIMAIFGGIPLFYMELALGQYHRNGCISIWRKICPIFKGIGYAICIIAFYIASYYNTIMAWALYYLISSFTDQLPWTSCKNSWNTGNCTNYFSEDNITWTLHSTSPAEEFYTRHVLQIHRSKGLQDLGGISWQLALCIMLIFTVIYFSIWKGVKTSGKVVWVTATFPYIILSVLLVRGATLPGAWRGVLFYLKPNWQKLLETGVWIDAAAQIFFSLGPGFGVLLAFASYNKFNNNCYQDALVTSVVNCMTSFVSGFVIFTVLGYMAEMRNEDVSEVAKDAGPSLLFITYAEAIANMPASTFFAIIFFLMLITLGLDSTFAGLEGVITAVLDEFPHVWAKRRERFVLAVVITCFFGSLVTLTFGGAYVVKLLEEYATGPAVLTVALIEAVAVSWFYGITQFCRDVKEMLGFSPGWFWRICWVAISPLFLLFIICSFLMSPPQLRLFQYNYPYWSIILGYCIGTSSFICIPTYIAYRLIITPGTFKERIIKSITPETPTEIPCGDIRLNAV
T4 sequence (P31645 whole entry): as above
T5 sequence (Q01959 whole entry): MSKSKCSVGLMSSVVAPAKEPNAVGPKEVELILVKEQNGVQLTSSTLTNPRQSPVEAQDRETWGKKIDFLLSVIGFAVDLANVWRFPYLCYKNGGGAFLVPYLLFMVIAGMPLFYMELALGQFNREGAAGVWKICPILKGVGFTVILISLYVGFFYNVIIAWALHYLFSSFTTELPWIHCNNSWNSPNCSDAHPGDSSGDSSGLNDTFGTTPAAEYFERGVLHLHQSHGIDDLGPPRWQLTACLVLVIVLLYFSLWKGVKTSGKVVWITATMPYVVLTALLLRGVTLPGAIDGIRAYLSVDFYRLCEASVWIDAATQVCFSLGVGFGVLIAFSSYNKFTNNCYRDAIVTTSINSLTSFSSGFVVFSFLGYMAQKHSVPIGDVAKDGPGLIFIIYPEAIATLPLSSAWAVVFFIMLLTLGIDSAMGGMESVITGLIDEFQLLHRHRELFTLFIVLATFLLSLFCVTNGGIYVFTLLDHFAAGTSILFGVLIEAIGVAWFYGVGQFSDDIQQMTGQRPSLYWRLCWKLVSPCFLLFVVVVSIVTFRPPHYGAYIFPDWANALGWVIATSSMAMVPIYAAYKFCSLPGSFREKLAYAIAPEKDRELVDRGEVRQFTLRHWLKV
T2 sequence (Q01959 whole entry): as above
T6 sequence (P23975 whole entry): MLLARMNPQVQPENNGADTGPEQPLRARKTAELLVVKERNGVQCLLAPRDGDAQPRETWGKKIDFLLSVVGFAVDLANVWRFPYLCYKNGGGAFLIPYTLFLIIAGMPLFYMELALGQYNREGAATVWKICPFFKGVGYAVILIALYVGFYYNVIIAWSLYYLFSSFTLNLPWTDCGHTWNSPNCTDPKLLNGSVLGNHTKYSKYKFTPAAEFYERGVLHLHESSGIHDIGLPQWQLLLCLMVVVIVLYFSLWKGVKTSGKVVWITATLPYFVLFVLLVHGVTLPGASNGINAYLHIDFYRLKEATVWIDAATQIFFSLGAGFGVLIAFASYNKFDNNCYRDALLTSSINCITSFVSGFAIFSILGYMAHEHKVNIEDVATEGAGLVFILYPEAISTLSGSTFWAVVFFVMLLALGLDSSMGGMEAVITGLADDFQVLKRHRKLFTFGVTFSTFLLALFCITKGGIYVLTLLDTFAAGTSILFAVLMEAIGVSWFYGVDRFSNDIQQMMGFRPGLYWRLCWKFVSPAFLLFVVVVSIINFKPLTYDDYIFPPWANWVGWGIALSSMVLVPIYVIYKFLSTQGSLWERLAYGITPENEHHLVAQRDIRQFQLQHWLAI
T3 sequence (P23975 whole entry): as above

One may read the Ki as the equilibrium dissociation constant of an inhibitor or competing ligand from its target. Broadly, the IC50 is the point on the concentration scale where inhibition reaches its midpoint. Turning to `COC(=O)[C@@H]1C2CCC(C[C@@H]1c1ccc(/C=C/I)cc1)N2` (some centres unmarked) [EINT], the Ki turned out to be 1.15 nM at human SERT, 1.88 nM at human DAT and 32 nM at human NET (read-out: NET Ki). For the same compound, the “Selectivity for the SERT over the DAT” value in the assay on SERT was 500 times. For the same compound, in the assay on SERT (vs [3H]WIN 35428 (so in the source)), the IC50 is 0.69 nM.

Regarding `COC(=O)C1C2CCC(CC1c1ccc(CCF)c(Br)c1)N2` (stereo not drawn) [FEBrNT, 2β-carbomethoxy-3β-(4-(2-fluoroethyl)-3-bromophenyl)nortropane], at human SERT, the Ki is 0.22 nM and 0.12 to 0.56 nM; the “SERT Ki” value was “subnanomolar”; the DAT/SERT selectivity is 100; the NET/SERT selectivity turned out to be 573. The Ki on human DAT was 23.2 nM and 23 nM. At human NET (NET Ki), this compound came in with a Ki of 126 nM.

`COC(=O)C1C2CCC(CC1c1ccc(CCF)c(Cl)c1)N2` (stereo not drawn) [FEClNT, 2β-carbomethoxy-3β-(4-(2-fluoroethyl)-3-chlorophenyl)nortropane]: at human SERT, the Ki was 0.56 nM and 0.12 to 0.56 nM; the “SERT Ki” value was “subnanomolar”; the DAT/SERT selectivity amounted to 48; the NET/SERT selectivity turned out to be 209. Also, affinity on human DAT was put at a Ki of 27 nM. For the same compound, the affinity on human NET (NET Ki), expressed as Ki, was 117 nM.

Take `COC(=O)C1C2CCC(CC1c1ccc(CCF)c(I)c1)N2` (stereo not drawn) [FEINT, 2β-carbomethoxy-3β-(4-(2-fluoroethyl)-3-iodophenyl)nortropane]: at human SERT, the Ki was 0.1 nM and 0.12 to 0.56 nM; the “SERT Ki” value is given as “subnanomolar”; the DAT/SERT selectivity was 424 and 283; the NET/SERT selectivity turned out to be 649. Also, the Ki at human DAT is 42.4 nM and 42 nM. For the same compound, the Ki on human NET (NET Ki) was 64.9 nM and 65 nM.

As for `COC(=O)C1C2CCC(CC1c1ccc(CCCF)c(I)c1)N2` (centres unmarked) [FPINT], the “SERT Ki” value at human SERT is given as “subnanomolar”.

As to `COC(=O)[C@H]1[C@@H](c2ccc(C(C)=CF)cc2)C[C@@H]2CC[C@H]1N2` [IPPNT], on human SERT, affinity was put at a Ki of 0.08 nM, the “SERT Ki” value was “subnanomolar” and the DAT/SERT selectivity came out at 37. The Ki on human DAT was found to be 2.93 nM. Further, at human NET (read-out: NET Ki), the Ki worked out at 11.8 nM.

Regarding `COC(=O)C1C2CCC(CC1c1ccc(/C=C\CF)cc1)N2` (stereo not drawn) [Ligand Z-3-FPNT, 2β-carbomethoxy-3β-(4′(Z-3-fluoropropenyl)phenyl)-nortropane], at human SERT, the Ki was 0.1 nM and the DAT/SERT selectivity is 116. This compound also showed a Ki on human DAT of 11.6 nM.

Take `COC(=O)C1C(c2ccc(C=CI)cc2)CC2CCC1N2CCF` (centres unmarked) [N-fluoroethyl ZIENT]: the Ki in assay [1] is 1.28 nM; in assay [2], 27 nM; in assay [3], 21 nM.

Turning to `COC(=O)C1C(c2ccc(C=CI)cc2)CC2CCC1N2C` (centres unmarked) [N-methyl ZIENT], the Ki in assay [1] came out at 0.48 nM; in assay [2], 33 nM; in assay [3], 69 nM.

As to `COC(=O)C1C2CCC(CC1c1ccc(I)cc1)N2` (stereo not drawn) [Nor-CIT, 2β-carbomethoxy-3β-(4-iodophenyl)nortropane, reference compound], the Ki at human SERT turned out to be 0.12 nM.

With `C=C(C)c1ccc(C2CC3CCC(N3)C2C(=O)OC)cc1` (stereo not drawn) [Nor-β-CIPPT, 2β-carbomethoxy-3β-(4′-isopropenylphenyl)nortropane], the “Selectivity for the SERT over the DAT” value in the assay with SERT is recorded as 38 times. The IC50 in the assay with SERT (vs [3H]paroxetine) is 0.6 nM.

As to `COC(=O)C1C2CCC(CC1c1ccc(C=CI)cc1)N2` (centres unmarked) [ZIENT], the Ki on human SERT is 0.031 nM and 0.03 to 0.1 nM and 0.05 nM; at human DAT, 3.47 nM; at human NET (NET Ki), 24 nM; in assay [1], 0.25 nM; in assay [2], 16 nM; in assay [3], 64 nM. Moreover, the “SERT Ki” value at human SERT is recorded as “subnanomolar”. Besides, the DAT/SERT selectivity on human SERT was 100 and 116. In addition, the NET/SERT selectivity at human SERT is given as 484.
